Data: publication PMC5522078, “Discovery and characterization of small molecules targeting the DNA-binding ETS domain of ERG in prostate cancer” (Oncotarget, 2017)

What was measured:
[1] = biological target: T1, ERG (Homo sapiens, UniProt P11308); experiment: ERG protein stability, Western blot after cycloheximide; assay type: cell-based; conditions: VCaP cells
T1 construct: VCaP (endogenous overexpression); endogenous in cells; host or cells: VCaP (whole cells for A2 and A17; nuclear extract for A16)
T1 sequence (P11308 33-479 limits assumed): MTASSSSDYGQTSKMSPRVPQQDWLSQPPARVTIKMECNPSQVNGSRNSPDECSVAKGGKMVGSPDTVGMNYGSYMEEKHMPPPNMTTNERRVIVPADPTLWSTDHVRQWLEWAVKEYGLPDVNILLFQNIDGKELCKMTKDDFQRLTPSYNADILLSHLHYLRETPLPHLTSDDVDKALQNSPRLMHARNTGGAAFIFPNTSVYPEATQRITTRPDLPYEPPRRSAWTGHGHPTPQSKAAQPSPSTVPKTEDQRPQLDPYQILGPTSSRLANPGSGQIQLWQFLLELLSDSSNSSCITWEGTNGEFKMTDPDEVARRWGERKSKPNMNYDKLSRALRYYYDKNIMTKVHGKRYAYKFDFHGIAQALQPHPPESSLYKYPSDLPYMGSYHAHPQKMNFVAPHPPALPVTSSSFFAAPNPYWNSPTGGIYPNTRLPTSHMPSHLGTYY
Description: Cells were lysed on ice with RIPA buffer containing a protease inhibitor cocktail (Pierce). Primary antibodies: ERG (1:1,000, EPR3864(2), Abcam), α-Tubulin (1:20,000, Millipore), Vinculin (1:1,000, Abcam). Immunoreactivity was detected with the use of the goat anti-rabbit or rabbit anti-mouse horseradish peroxidase (HPR)–conjugated secondary antibody (1:10,000) (Santa Cruz), and visualization was achieved by chemiluminescence (Pierce). To inhibit protein synthesis, 10 μM cycloheximide was added for 1 h and then replaced with treatment medium for indicated time frame.

[2] = biological target: T2, androgen receptor (Homo sapiens, UniProt P10275); experiment: Androgen receptor luciferase reporter (ARR3tk-luc) assay; assay type: cell-based; conditions: PC3 cells transfected with AR; 1 nM R1881; 1, 5 or 10 μM
T2 construct: expressed in transfected cells; host or cells: PC3
T2 sequence (P10275 1-920): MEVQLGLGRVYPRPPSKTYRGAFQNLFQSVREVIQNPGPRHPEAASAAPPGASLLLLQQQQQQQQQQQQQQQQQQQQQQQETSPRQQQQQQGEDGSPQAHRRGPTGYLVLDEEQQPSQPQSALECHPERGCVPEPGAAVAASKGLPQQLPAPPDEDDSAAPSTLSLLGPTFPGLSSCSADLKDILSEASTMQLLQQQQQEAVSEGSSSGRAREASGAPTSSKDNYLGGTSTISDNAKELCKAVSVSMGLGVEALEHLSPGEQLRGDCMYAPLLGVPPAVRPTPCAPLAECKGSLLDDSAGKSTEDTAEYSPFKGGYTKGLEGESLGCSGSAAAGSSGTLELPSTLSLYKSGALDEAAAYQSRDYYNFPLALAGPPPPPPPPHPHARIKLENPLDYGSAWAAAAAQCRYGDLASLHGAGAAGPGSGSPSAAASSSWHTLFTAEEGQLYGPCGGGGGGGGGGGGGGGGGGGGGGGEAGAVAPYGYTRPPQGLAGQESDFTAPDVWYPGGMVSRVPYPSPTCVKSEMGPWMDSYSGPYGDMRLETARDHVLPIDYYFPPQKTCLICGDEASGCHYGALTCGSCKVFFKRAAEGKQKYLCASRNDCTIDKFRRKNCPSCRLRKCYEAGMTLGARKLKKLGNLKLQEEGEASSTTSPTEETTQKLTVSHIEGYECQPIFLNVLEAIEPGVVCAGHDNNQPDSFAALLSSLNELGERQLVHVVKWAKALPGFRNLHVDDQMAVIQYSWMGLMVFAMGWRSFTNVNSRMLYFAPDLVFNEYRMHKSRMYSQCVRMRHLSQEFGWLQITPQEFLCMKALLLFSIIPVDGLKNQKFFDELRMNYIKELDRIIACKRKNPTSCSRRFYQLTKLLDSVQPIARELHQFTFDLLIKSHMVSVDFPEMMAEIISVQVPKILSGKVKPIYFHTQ
Description: All of the compounds selected from the virtual screening were tested in a luciferase-based ERG-responsive reporter assay, using two ERG-overexpressing cell lines, VCaP and PNT1B-ERG, previously developed in house. […] Data were normalized first to Renilla luciferase and then to the DMSO-media control on each plate, unless otherwise stated. Initial hit compounds were identified as those with an average normalized luciferase reading (firefly luciferase/Renilla luciferase readings) that is 60% or less of the average normalized luciferase reading of the DMSO-media control (i.e. 40% or more reduction of luciferase activity) at 10 μM. Representative example of raw Renilla luciferase readings presented in Supplementary Figure 9B. […]
Supplementary Figure 3: VPC-18005 selectively suppresses ERG-mediated transcriptional activity. […] Data are presented as the mean ± SEM of 4 technical replicates and expressed as luciferase:renilla ratio (activity).
(B) Luciferase assay was performed on VCaP cells transfected with ETS responsive luciferase reporter and treated with DMSO (0) or 0.1, 1, or 10 nM R1881 in the presence of 25 μM of VPC-18005. Data are presented as the mean ± SEM of 4 technical replicates and expressed as the luciferase:renilla ratio relative to VPC-18005 alone. […]

[3] = biological target: T3, ETS domain of ETV4 (Homo sapiens, UniProt P43268); experiment: Preliminary NMR spectroscopic experiments, ETV4; assay type: binding
T3 sequence (P43268 341-421 limits assumed): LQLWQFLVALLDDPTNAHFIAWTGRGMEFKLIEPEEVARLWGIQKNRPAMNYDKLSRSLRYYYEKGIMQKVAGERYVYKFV

## CC(C)c1ccc(C=N/N=C2\NC(=O)[C@@H](CC(=O)O)S2)cc1 (stereo in doubt) [VPC-18005, 2-((Z)-2-(((Z)-4-isopropylbenzylidene)hydrazono)-4-oxothiazolidin-5-yl)acetic acid]
[1]; cycloheximide pre-treatment, up to 50 μM for 4 h
  ERG protein degradation, 4 h: did not induce ERG degradation
[1]; cycloheximide, 24 and 48 h
  ERG protein degradation, 24 and 48 h: no observable ERG protein degradation
[2]
  Effect on androgen receptor luciferase reporter (ARR3tk-luc) expression: no significant effect
[3]
  Interaction with the ETS domain of ETV4: interacts
